Measurements as given in article PMC6151660 (Molecules : A Journal of Synthetic Chemistry and Natural …, 2017).

System: M. tuberculosis moxifloxacin resistant mutants (G88C, A90V, D94G in gyrase A) and H37Rv
Format: cell-based, Mycobacterium tuberculosis

Row | Compound | activity in fluoroquinolone resistant strains | growth inhibition compared with moxifloxacin
1 | Cc1cc(=O)oc2cc(OCCN3CCN(Cc4ccc(Br)cc4)CC3)ccc12 [CM12] | maintained potency in all evaluated strains | growth inhibition in similar ranges to moxifloxacin
2 | Cc1c(C#N)c(=O)oc2cc(OCCN3CCN(Cc4ccc(Br)cc4)CC3)ccc12 [CM14] | maintained potency in all evaluated strains | growth inhibition in similar ranges to moxifloxacin
